US12427183B2, “Methods of treating cancer, infectious disease, and autoimmune disease using chemokines” (New York Society for the Relief of the Ruptured and …, priority 2016, dated 2025)

Assays:
pDCs of HDs = experiment: TLR gene expression in purified pDCs from HDs cultured with cytokines or chemokines (qPCR); type: cell-based, human; settings: 10 μg/ml each, 24 hours, pDCs from HDs
Description: (§1) PBMCs were prepared using Ficoll-Paque density gradient from fresh blood under internal Institutional Review Board-approved protocols. pDCs were isolated as previously described (Guiducci et al. 2008) using either using negative depletion (Miltenyi Biotech) or following cell sorting using a BD IFNLUX cell sorter. As part of the gating strategy, neutrophils were excluded by FSC/SSC and cells positive for CD14 (CD3 and CD19 as well) were first excluded in order to prevent the contamination by TLR8 positive cells and then positively gated on HLA-DR, CD123 and BDCA4 to purify the pDCs. All BDCA4+ cells also express BDCA2 (results not shown). As a result, pure pDCs were obtained and no markers for neutrophils (CD66) or myeloid cells were found by PCR. B cells were FACS sorted as CD19+ and monocytes as CD14+ cells. PBMCs were depleted of pDCs using BDCA4 beads from Miltenyi. pDCs were cultured at 10,000-30,000 cells per well in a 96-round bottom plate and incubated at 37° C., 5% CO2 and 95% humidity. After 24 hours of culture, the supernatant was collected for ELISA or Mutiplex cytokine assays. In some culture conditions, cells were cultured with the PI3Kδ inhibitor, CAL-101 (Selleck chemicals) for 24 hours. The RNA-based TLR8 agonist, ORN8-L previously described (Guidacci et al. 2013) was synthetized by Chemgenes Corporation. For the TLR8 activation assay, pDCs were incubated in complete media alone, 200 μg/ml ORN8-L in complete media or 200 μg/ml ORN8-L+ 10 μg/ml CXCL4 (R&D systems).
PCR reactions were performed as described previously with 10 ng of cDNA (Barrat et al. 2005). In brief, RNA was extracted from cells using the Qiagen RNeasy Mini Kit. Quantity of RNA was measured by Nanodrop and high-capacity cDNA Reverse Transcription kit was used to generate 20-50 ng cDNA. Gene expression levels were calculated based on relative threshold cycle (Ct) values. This was done using the formula Relative Ct=100×1.8 (HSK-GENE), where HSK is the mean CT of duplicate housekeeping gene runs (we used Ubiquitin), GENE is the mean CT of duplicate runs of the gene of interest, and 100 is arbitrarily chosen as a factor to bring all values above 0.
In particular, CXCL4 or IP-10 (two CXCR3B agonists) (10 μg/ml each) had no impact on TLR8 nor TLR7 and TLR9 expression levels in pDCs (FIG. 2C).

[1] = system: TLR8-mediated activation of SSc pDCs; experiment: TLR8 activation assay of pDCs from SSc patients (ORN-8L with or without CXCL4); type: cell-based, human; settings: ORN-8L 200 μg/ml + CXCL4, 24 hours
Description: as §1
Supernatant from pDCs 24 hour culture was used for quantification of secreted chemokines and cytokines and measured with the use of an enzyme-linked immunosorbent assay (ELISA) or Luminex multiplex-beads immunoassay. CXCL4 ELISA (Ray Biotech) and IFNα, IP-10, IL-6, TNF Luminex assay (Millipore) was performed according to the manufacturer's protocol. Due to the variability in the number of cells obtained from the different patients and so we could compare the values across donors, all results were normalized to 10,000 cells. Of note, for all donors, pDCs were plated between 10,000-30,000 cells.
When purified pDCs from HDs or SSc patients were cultured with CXCL4 alone ([…]), there was no effect on IFN production.

[2] = system: TLR9-mediated activation of pDCs; experiment: TLR9-mediated activation of purified pDCs (CpG with or without chemokines), IFN-α ELISA; type: cell-based, human
[3] = system: TLR7-mediated activation of human B cells; experiment: TLR7-mediated activation of human B cells (R848 with or without CXCL4); type: cell-based; settings: R848 0.15 μM + CXCL4 10 μg/ml
Description: IL-6 and TNF gene levels were measured at 6 hour post culture by PCR, secretion of IL-6 and TNF were quantified using luminex and CD83 and CD80 expression was measured by flow cytometry at 24 hour post culture.

healthy monocytes = experiment: Cytokines in healthy monocytes with CXCL4; type: cell-based, human
[4] = system: PBMCs and pDC-depleted PBMCs; experiment: IFN-α production in PBMCs and pDC-depleted PBMCs cultured with CpG and chemokines (ELISA); type: cell-based, human; settings: CpG 0.25 μM + chemokine 10 μg/ml
Description: PBMCs were prepared using Ficoll-Paque density gradient (GE Healthcare) as previously described (Guiducci et al., 2008).
pDCs were isolated from PBMCs by positive selection using BDCA4-MicroBead Kit as previously described (Guiducci et al., 2008). pDC-depleted PBMC were prepared by removing BDCA4-positive cells from PBMC using microbeads.
5×10^5 PBMCs or pDC-depleted PBMCs were cultured in 96 wells plate and stimulated with 0.25 μM CpG DNA with or without 10 μg/ml CXCL4, CXCL10, CXCL12 or CCL5. Freshly isolated pDCs were resuspended at 5×10^4 cells/100 μl RPMI 1640 medium (Gibco) and stimulated with the 0.25 μM CpG with/without 10 μg/ml indicated chemokines. The supernatant was harvested after 18 h and IFN-α was measured by ELISA.
As shown above, CXCL4 can increase IFN-α production by TLR9-activated pDCs. Thus it was tested whether other chemokines may impact TLR9 signaling in pDCs. Purified pDCs were left unstimulated (Unstim.) or cultured with CpG (0.25 μM) alone or with the indicated chemokines at 10 μg/ml. IFN-α secretion was quantified by ELISA. Strikingly, it was observed that a set of chemokines, including CXCL4, CXL10, CXCL12 and CCL5, were able to superinduce TLR9-induced response by pDCs (FIG. 18A), while they had no effect when used alone (results not shown). […] This also raised questions as to the specificity and mechanism for this effect. First, as other DNA sensors have been described to induce IFN-α in immune cells (Barrat et al., 2016), it was tested to see if these chemokines altered the specificity of the CpGs for TLR9 and if the IFN-α response was restricted to pDCs. Total PBMCs or PBMCs where pDCs were depleted (PBMC-ΔpDCs) were incubated with CpGs and either CXCL4, CXCL10, CXCL12 or CCL5 and IFN-α production was quantified by ELISA.

With “CXCL4: small chemokine of the CXC family, 70-amino acid protein released from alpha-granules of activated platelets” the “TLR8, TLR7 and TLR9 expression levels in pDCs” value (pDCs of HDs) was “no impact”, the “IL-6 production in response to TLR8” value [1] was “no effect” and the “TNF production in response to TLR8” value [1] was “no effect”. For the same substance, the “production of IFN-α in response to TLR8” value ([1]; p<0.001) was “significantly increased”, the “production of IP-10 in response to TLR8” value ([1]; p<0.001) was “significantly increased” and the “TLR9 response (IFN-α) of pDCs” value ([2]; CXCL4 10 μg/ml, CpG-C 0.1 μM or CpG-B 0.25 μM, suboptimal doses, similar in HDs and SSc patients) was “drastically impacted”. The “TLR9-induced response (IFN-α secretion) by pDCs” value ([2]; CpG 0.25 μM, chemokine 10 μg/ml (Example 17)) was “superinduce”, the “dependence of IFN-α superinduction on chemokine receptors” value ([2]; with AMG487 100 nM, AMD3100 10 μg/ml, anti-CXCR7 11G8 10 μg/ml, J113863 1.5 μM or Vicriviroc 0.1 μM) was “independent of their chemokine receptors” and the “gene expression or secretion of IL-6 when activated by TLR7” value [3] was “little effect”. For the same substance, the “gene expression or secretion of TNF when activated by TLR7” value [3] was “little effect”, the “IFN-inducible IP-10 in healthy monocytes” value (healthy monocytes) was “reduces” and the “IL-6 in healthy monocytes” value (healthy monocytes) was “increases”. For the same substance, the “TNF in healthy monocytes” value (healthy monocytes) was “increases” and the “IFN-α production in absence of the pDCs (PBMC-ΔpDCs versus total PBMCs)” value [4] was “dramatic decrease”.
